≈ marks a conversion by molar mass, not a printed value.
What was measured:
[1] = Pharmacokinetic (PK) determination in adult Beagle dogs; format: in vivo
Protocol: Healthy adult male Beagle dogs were obtained from Beijing Marshall Biotechnology Co., Ltd. Three groups were divided into this study and administered via oral gavage at a dose of 19.5 mg/kg. Animals receiving oral gavage were fasted overnight and from 10 hours before to 4 hours after administration. Blood samples were collected 15 minutes, 30 minutes, 45 minutes, 1 hour, 1.5 hours, 3 hours, 4 hours, 6 hours, 8 hours, and 24 hours after gavage. Blood samples (1 mL) were collected from the forelimb vein or other suitable venous sampling methods and placed in labeled EDTA-K2 anticoagulant tubes. After gentle inversion to thoroughly mix the anticoagulant with the blood, the tubes were immediately placed on wet ice. Plasma was separated by centrifugation within 1 hour of blood collection in the condition of 4°C, 2200g, and 10 minutes. The separated plasma was placed in labeled EP tubes. Plasma samples were immediately stored in an ultra-low temperature freezer until analysis. Plasma samples should be stored in a refrigerator at -70°C before testing. Plasma samples were extracted using protein precipitation, and the extracts were analyzed by LC/MS/MS.

[2] = Solubility determination in buffer solutions (HPLC); format: physicochemical; conditions: for solubility: 37°C
Protocol: Appropriate amounts of Forms III, IV, and V were weighed and added to buffer solutions with pH 4.5 and 6.8 to prepare a suspension at 5 mg/mL. The resulting suspension was stirred at 37°C, and samples were collected and analyzed at 5, 30, 60, and 240 minutes. Use a syringe to draw approximate 1 mL of the suspension, filter it through a membrane filter, and dilute it several times before testing the resulting filtrate with HPLC, using the area normalization method to determine the solubility. Table 8 Tests of different crystal forms at various pH values

[3] = Competitive slurry test (XRD of the solid); format: physicochemical; conditions: for form transformation in competitive slurry: ethanol/water (1/1) (80°C), acetonitrile (70°C), acetonitrile/water (70°C)
Protocol: The relative stability of Form II and Form III was investigated by competitive slurry test. Approximately 5 mg of Form II and Form III were weighed, mixed, and then added in 1/1 ratio of methanol/n-heptane, ethanol and ethyl acetate, respectively, to prepare a suspension. The suspension was stirred at room temperature for several hours, then centrifuged and the solid was analyzed by XRD.
Competitive slurry studies were conducted to investigate the relative stability of Forms III, IV, and V. 5 mg of Forms III, IV, and V were weighed and mixed uniformly. Suspensions were prepared respectively in ethanol (80°C), ethanol/water (1/1) (80°C), water (60°C), water (25°C), acetonitrile (70°C), and acetonitrile/water (1/1) (70°C). The suspensions were stirred for 12 hours, and the solids were centrifuged and analyzed by XRD. Table 6: Competitive slurry results of Forms III, IV and V

[4] = Stability investigation (HPLC purity at 220 nm and XRD); format: physicochemical; conditions: for chemical stability / crystal form change: 40°C/75%RH and 25°C/60%RH for 7 days
Protocol: The analysis method is as follows: Octadecylsilane bonded silica gel was used as the filler (Kromasil C 18 4.6 mm × 250 mm, 5 µm); 0.01 mol/L potassium dihydrogen phosphate solution (pH was adjusted to 3.0 with phosphoric acid) was used as mobile phase A, and methanol was used as mobile phase B. Gradient elution was performed according to the table below; the detection wavelength was 220 nm; the column temperature was 40°C; the flow rate was 1.0 ml/min; the injection volume was 10 µl, and the HPLC purity was calculated by the area normalization method.
Appropriate amounts of Form III, IV, and V were weighed in sample bottles and stored uncovered at 80°C, 40°C/75% RH, and 25°C/60% RH for 7 days. Samples were collected at 0, 1, 3, and 7 days for HPLC and XRD analysis. Table 7 Stability test results of Form III, IV and V

[5] = Determination of bioavailability in adult SD rats; format: in vivo; conditions: Sprague-Dawley, rat, plasma, female SD rats
Protocol: Healthy adult female Sprague-Dawley rats were obtained from Beijing Weitong Lihua Laboratory Animal Technology Co., Ltd. The study was conducted in two phases: first, animals received a single intravenous injection of 1 mg/kg; second, one week later, the same group received a single oral gavage of the suspension at a dose of 10 mg/kg. Animals receiving oral gavage were fasted overnight and from 10 hours before to 4 hours after administration. Animals in the intravenous group were not restricted to food. Blood samples were collected at 0.083, 0.25, 0.5, 1, 2, 4, 6, 8, and 24 hours after administration for the intravenous group and at 0.25, 0.5, 1, 2, 4, 8, and 24 hours after administration for the oral group. After isoflurane anesthesia by using a small animal anesthesia machine, 0.4 ml of whole blood was obtained from the retinal venous plexus. The sample was centrifuged at 4000 rpm for 20 minutes at 4°C. Plasma was separated and placed in labeled EP tubes. Plasma samples were immediately stored in an ultra-low temperature freezer until analysis. Plasma samples should be stored in a refrigerator at -70°C before testing. Plasma samples were extracted using protein precipitation, and the extracts were analyzed by LC/MS/MS.

JAK1/2/3 = assay: Enzymatic activity (IC50) test, Lance Ultra TR-FRET; conditions: JAK1/2/3 kinase platform; kinase not given
[6] = male Beagle dogs, oral gavage 19.5 mg/kg, 19.5 mg/kg
[7] = male Beagle dogs, oral gavage 19.5 mg/kg

| Compound | AUC 0-inf [1, 6] [µg·h/mL] | AUC 0-t [1, 6] [µg·h/mL] | C max [1, 6] [µg/mL] | solubility ([2]; PH=4.5 buffer, 5 min) [mg/mL] | solubility ([2]; PH=4.5 buffer, 30 min) [mg/mL] | solubility ([2]; PH=4.5 buffer, 60 min) [mg/mL] | solubility ([2]; PH=4.5 buffer, 240 min) [mg/mL] | solubility ([2]; pH=6.8 buffer, 5 min) [mg/mL] | solubility ([2]; pH=6.8 buffer, 30 min) [mg/mL] | solubility ([2]; pH=6.8 buffer, 60 min) [mg/mL] | solubility ([2]; pH=6.8 buffer, 240 min) [mg/mL] | 220nm (HPLC purity) ([4]; 0 days) [%] | 220nm (HPLC purity) ([4]; 25°C/60%RH, 3 days, uncovered) [%] | 220nm (HPLC purity) ([4]; 25°C/60%RH, 7 days, uncovered) [%] | 220nm (HPLC purity) ([4]; 40°C/75%RH, 3 days, uncovered) [%] | 220nm (HPLC purity) ([4]; 40°C/75%RH, 7 days, uncovered) [%] | chemical stability ([4]; 80°C) | crystal form change ([4]; 80°C) | 220nm (HPLC purity) ([4]; 80°C, 1 day, uncovered) [%] | 220nm (HPLC purity) ([4]; 80°C, 3 days, uncovered) [%] | other results |
| --- | --- | --- | --- | --- | --- | --- | --- | --- | --- | --- | --- | --- | --- | --- | --- | --- | --- | --- | --- | --- | --- |
| N#CCC1(n2cc(-c3ncnc4[nH]ccc34)c(N)n2)CN(C2CCN(C(=O)c3ccnc(C(F)(F)F)c3F)CC2)C1 [listing 1 of 3 here] | 13.248 | 13.174 | 4.057 | 0.0413 (≈ 72.6 µM) | 0.0601 (≈ 106 µM) | 0.0655 (≈ 115 µM) | 0.0840 (≈ 148 µM) | 0.0112 (≈ 19.7 µM) | 0.0299 (≈ 52.6 µM) | 0.0332 (≈ 58.4 µM) | 0.0415 (≈ 73 µM) | 99.83 | 99.90 | 99.95 | 99.89 | 99.90 | relatively stable | did not change | 99.90 | 99.89 | Tmax ([1]; dog, plasma, male Beagle dogs, oral gavage 19.5 mg/kg, read-out: Tmax): 1 h; half-life ([1]; male, beagle, dog, plasma, po, 19.5 mg/kg, male Beagle dogs, oral gavage 19.5 mg/kg): 2.45 h; relative stability of Form II and Form III ([3]; Form II and Form III mixed, methanol/n-heptane 1/1, ethanol, ethyl acetate, room temperature, several hours, XRD): more stable than Form II; form transformation in competitive slurry [3]: transformed into Form IV; 220nm (HPLC purity) ([4]; 80°C, 7 days, uncovered): 99.91% |
| N#CCC1(n2cc(-c3ncnc4[nH]ccc34)c(N)n2)CN(C2CCN(C(=O)c3ccnc(C(F)(F)F)c3F)CC2)C1 [listing 2 of 3 here] | 27.789 | 27.75 | 6.197 | 0.0471 (≈ 82.8 µM) | 0.0656 (≈ 115 µM) | 0.0700 (≈ 123 µM) | 0.0734 (≈ 129 µM) | 0.0247 (≈ 43.4 µM) | 0.0372 (≈ 65.4 µM) | 0.0402 (≈ 70.7 µM) | 0.0402 (≈ 70.7 µM) | 99.57 | 99.59 | 99.63 | 99.53 | 99.63 | relatively stable | did not change | 99.57 | 99.60 | pharmacokinetic properties after PO administration ([1]; comparison of the crystal forms): better pharmacokinetic properties; Tmax [1, 7]: 1.00 h; t 1/2 [1, 6]: 2.63 h; solubility relative to Form V ([2]; pH = 4.5 (postprandial gastric juice), 240 min): twice that of Form V; solubility relative to Form V ([2]; pH = 6.8 (simulated intestinal fluid), 240 min): twice that of Form V; relative stability of the forms ([3]; conclusion from competitive slurry of Forms III, IV, V): the most stable of the five forms; 220nm (HPLC purity) ([4]; 80°C, 7 days, uncovered): 99.57%; AUC 0-inf ([5]; IV (1 mg/kg)): 0.456 µg·h/mL; half-life ([5]; IV (1 mg/kg)): 0.61 h; clearance ([5]; IV (1 mg/kg), read-out: Cl s,app): 2.26 L/h/kg; Vd ([5]; IV (1 mg/kg), read-out: VZ): 1.5 L/kg; bioavailability ([5]; PO (10 mg/kg) vs IV (1 mg/kg)): 17%; AUC 0-inf ([5]; PO (10 mg/kg), suspension): 0.783 µg·h/mL; Cmax ([5]; PO (10 mg/kg), suspension): 0.475 µg/mL; Tmax ([5]; PO (10 mg/kg), suspension): 0.5 h; half-life ([5]; PO (10 mg/kg), suspension): 1.9 h |
| N#CCC1(n2cc(-c3ncnc4[nH]ccc34)c(N)n2)CN(C2CCN(C(=O)c3ccnc(C(F)(F)F)c3F)CC2)C1 [listing 3 of 3 here] | 8.431 | 8.354 | 2.44 | 0.0112 (≈ 19.7 µM) | 0.0258 (≈ 45.4 µM) | 0.0289 (≈ 50.8 µM) | 0.0356 (≈ 62.6 µM) | 0.0076 (≈ 13.4 µM) | 0.0133 (≈ 23.4 µM) | 0.0160 (≈ 28.1 µM) | 0.0190 (≈ 33.4 µM) | 98.02 | 98.10 | 97.87 | 98.02 | 98.01 | relatively stable | did not change | 98.05 | 98.03 | Tmax [1, 7]: 1.00 h; t 1/2 [1, 6]: 2.86 h; form transformation in competitive slurry [3]: transformed into Form IV; 220nm (HPLC purity) ([4]; 80°C, 7 days, uncovered): 98.02% |
| N#CCC1(n2cc(-c3ncnc4[nH]ccc34)cn2)CN(C2CCN(C(=O)c3ccnc(C(F)(F)F)c3F)CC2)C1 [Itacitinib, reference compound] | – | – | – | – | – | – | – | – | – | – | – | – | – | – | – | – | – | – | – | – | IC50 (JAK1/2/3): < 0.01 µM |
| N#CCC1(n2cc(-c3ncnc4[nH]ccc34)c(N)n2)CN(C2CCN(Cc3ccnc(C(F)(F)F)c3F)CC2)C1 [compound of formula I (amorphous form), 2-(3-(3-amino-4-(7H-pyrrolo[2,3-d]pyrimidin-4-yl)-1H-pyrazol-1-yl)-1-(1-(3-fluoro-2-(trifluoromethyl)isonicotinyl)piperidin-4-yl)azetidin-3-yl)acetonitrile] | – | – | – | – | – | – | – | – | – | – | – | – | – | – | – | – | – | – | – | – | IC50 (JAK1/2/3): < 0.01 µM |
